According to ChEMBL document CHEMBL1201862, “PubChem BioAssay data set” (2004):
Calls of active or inactive are those of the source.

Key:
Mucolipin-3 = molecular target: T1, Mucolipin-3 (Homo sapiens, UniProt Q8TDD5); assay: Dose response cell-based high-throughput screening assay for agonists of the transient receptor potential channel ML3 (TRPML3). [Related pubchem assays: 1526, 1424, 1448 ]; assay type: functional
T1 sequence (Q8TDD5 whole entry): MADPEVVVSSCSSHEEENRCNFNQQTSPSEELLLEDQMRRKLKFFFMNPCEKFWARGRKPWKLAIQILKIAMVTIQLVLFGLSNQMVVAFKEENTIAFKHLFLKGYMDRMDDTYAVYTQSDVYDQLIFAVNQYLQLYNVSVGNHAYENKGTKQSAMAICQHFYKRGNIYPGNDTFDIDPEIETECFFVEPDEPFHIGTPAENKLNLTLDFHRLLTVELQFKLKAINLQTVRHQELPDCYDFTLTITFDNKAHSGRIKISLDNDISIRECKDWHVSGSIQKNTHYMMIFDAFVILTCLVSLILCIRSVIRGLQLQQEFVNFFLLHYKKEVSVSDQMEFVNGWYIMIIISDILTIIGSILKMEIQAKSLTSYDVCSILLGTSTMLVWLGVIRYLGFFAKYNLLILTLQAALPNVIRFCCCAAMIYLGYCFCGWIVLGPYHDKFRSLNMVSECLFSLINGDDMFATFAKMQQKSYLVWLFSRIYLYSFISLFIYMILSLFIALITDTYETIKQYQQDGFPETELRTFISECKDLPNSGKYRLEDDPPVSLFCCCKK

Ion channel NompC = Ion channel NompC (Danio rerio, UniProt Q7T1G6); assay: Fluorescence counterscreen assay for TRPML3 agonists: dose response cell-based high-throughput screening assay to identify agonists of the transient receptor potential channel N1 (TRPN1). [Related pubchem assays: 1526, 1424, 1448 ]; assay type: functional
Cytochrome P450 1A2 = molecular target: T2, Cytochrome P450 1A2 (Homo sapiens, UniProt P05177);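 also: PubChem cytochrome P450 panel assay, CYP1A2 panel member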
T2 sequence (P05177 whole entry): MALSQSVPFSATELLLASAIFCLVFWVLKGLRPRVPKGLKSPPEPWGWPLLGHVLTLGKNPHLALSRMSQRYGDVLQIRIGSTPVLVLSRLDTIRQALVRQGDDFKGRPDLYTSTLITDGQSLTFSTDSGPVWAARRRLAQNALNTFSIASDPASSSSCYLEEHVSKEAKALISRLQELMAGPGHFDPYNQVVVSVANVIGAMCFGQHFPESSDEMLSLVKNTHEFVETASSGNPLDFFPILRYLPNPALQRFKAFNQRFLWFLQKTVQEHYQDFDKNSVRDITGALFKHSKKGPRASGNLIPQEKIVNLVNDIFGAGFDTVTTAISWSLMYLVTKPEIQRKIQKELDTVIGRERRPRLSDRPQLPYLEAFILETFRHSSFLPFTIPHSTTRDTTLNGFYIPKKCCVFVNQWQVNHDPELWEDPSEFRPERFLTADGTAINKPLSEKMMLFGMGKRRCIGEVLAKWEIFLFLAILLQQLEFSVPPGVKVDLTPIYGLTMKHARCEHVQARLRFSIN

[1] = A High Throughput Confirmatory Assay used to Identify Novel Compounds that Inhibit Mycobacterium Tuberculosis in the absence of Glycerol.; assay type: functional
[2] = HPDE-C7 pancreatic duct cell viability loss – fluorescence, HTS (AID 430); assay type: functional, cell-based; settings: Homo sapiens
[3] = viability loss of HPDE-C7K cells – cell-based, fluorescence, HTS, primary screen (AID 431); assay type: functional; settings: Homo sapiens
[4] = molecular target: T3, Heat shock factor protein 1 (Mus musculus, UniProt P38532); assay: enhancement of HSF1-driven luciferase signal – cell-based, NIH3T3, luminescence, dose retest, confirmation (AID 435004); assay type: functional;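 also: stress induced by proteasome inhibitor MG132 added 30 min after compound; luciferase reporter driven by HSF1 response element in NIH3T3 cells; actives raise luminescence as potentiators of the MG132 stress response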
T3 sequence (P38532 whole entry): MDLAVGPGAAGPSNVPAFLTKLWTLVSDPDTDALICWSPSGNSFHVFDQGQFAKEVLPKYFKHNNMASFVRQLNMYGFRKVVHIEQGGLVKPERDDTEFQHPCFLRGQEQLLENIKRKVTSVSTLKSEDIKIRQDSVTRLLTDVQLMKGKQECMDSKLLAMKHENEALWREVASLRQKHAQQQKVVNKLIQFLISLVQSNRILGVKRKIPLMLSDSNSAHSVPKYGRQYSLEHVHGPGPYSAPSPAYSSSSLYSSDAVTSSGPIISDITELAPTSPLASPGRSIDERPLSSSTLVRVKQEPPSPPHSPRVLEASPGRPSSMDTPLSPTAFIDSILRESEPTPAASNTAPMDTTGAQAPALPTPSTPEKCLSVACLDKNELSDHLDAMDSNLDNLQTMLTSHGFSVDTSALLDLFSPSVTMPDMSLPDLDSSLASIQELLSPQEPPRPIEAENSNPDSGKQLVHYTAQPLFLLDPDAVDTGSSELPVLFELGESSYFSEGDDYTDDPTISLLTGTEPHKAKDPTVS

[5] = molecular target: T4, Replicative DNA helicase DnaB (Mycobacterium tuberculosis, UniProt P9WMR3); assay: DnaB intein splicing inhibitors, dose response, biochemical, cell-free fluorescence (AID 449749); assay type: functional
T4 sequence (P9WMR3 whole entry): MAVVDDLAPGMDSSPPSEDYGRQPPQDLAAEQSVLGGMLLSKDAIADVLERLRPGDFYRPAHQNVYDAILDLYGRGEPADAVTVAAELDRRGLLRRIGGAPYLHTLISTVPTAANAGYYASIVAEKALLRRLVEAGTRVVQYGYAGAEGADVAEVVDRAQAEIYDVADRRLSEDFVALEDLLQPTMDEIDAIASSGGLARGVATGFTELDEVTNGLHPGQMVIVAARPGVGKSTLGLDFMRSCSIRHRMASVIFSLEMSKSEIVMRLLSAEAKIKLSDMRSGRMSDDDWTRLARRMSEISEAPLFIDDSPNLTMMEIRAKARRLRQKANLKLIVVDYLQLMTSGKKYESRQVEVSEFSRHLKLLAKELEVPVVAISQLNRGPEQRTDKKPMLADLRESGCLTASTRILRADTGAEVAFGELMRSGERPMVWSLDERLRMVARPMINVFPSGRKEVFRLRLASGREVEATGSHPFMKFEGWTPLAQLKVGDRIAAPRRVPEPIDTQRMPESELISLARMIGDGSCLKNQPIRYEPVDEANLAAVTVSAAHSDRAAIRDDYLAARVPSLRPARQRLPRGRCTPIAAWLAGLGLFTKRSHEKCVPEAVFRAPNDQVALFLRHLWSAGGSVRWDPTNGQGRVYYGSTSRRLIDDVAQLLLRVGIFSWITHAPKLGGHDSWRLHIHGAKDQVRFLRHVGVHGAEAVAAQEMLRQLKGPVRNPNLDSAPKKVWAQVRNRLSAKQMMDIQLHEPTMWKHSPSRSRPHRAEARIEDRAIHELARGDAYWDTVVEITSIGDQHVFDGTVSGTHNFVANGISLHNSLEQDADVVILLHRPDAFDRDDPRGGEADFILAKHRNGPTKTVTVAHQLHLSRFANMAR

Protein RecA = molecular target: T5, Protein RecA (Mycobacterium tuberculosis, UniProt P9WHJ3); assay: Fluorescence Cell-Free Homogeneous Dose Retest to Identify Inhibitors of RecA-Intein Splicing Activity. [Related pubchem assays (depositor defined):AID2097, AID2223, AID489010, AID492950]; assay type: functional
T5 sequence (P9WHJ3 whole entry): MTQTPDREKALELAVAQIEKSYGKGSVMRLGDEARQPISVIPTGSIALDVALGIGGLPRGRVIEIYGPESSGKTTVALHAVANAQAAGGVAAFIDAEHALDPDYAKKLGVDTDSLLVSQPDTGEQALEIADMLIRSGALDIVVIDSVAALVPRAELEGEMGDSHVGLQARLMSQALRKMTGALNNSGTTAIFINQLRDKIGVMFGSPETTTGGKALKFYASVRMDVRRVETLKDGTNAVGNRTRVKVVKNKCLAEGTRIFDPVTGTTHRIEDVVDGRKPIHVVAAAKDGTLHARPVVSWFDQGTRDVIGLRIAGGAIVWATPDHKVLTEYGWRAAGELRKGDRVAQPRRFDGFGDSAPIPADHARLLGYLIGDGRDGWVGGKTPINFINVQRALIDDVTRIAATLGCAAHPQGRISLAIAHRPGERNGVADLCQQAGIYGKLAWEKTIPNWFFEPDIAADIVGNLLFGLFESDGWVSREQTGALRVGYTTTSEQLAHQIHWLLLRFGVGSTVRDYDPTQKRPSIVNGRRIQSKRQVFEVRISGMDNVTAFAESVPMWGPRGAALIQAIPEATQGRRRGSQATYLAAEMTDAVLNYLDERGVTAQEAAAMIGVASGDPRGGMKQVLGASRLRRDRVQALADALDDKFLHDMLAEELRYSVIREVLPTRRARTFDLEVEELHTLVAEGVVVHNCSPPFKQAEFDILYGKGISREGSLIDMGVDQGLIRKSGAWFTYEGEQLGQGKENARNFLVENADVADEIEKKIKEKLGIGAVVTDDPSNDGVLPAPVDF

[6] = molecular target: T6, Polyadenylate-binding protein 1 (Homo sapiens, UniProt P11940); assay: MLLE binding blockers, Cy5 peptide tracer – biochemical, fluorescence polarization, Cy5-PAM2 peptide, secondary, miRNA deadenylation inhibitor project, dose response (AID 602260); assay type: functional; settings: read-out: IC50_Mean
[7] = molecular target: T6, Polyadenylate-binding protein 1; assay: MLLE domain peptide-binding blockers, IC50 – biochemical, fluorescence polarization, FITC-PAM2 peptide, dose response (AID 602259); assay type: functional; settings: read-out: IC50_Mean
[8] = viability of uninfected HEp-2 cells – cell-based, HTS, cytotoxicity control for RSV inhibitor project, dose response (AID 2410); assay type: functional; settings: human respiratory syncytial virus
[9] = decrease of insulin promoter-GFP reporter – imaging, high-content screening, mouse beta cells (AID 1628); assay type: functional; settings: MIN6
[10] = MIN6 cell viability loss – mouse insulinoma, cytotoxicity control, dose response (AID 2122); assay type: functional;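 also: confirmatory high-throughput counterscreen run to flag cytotoxic compounds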
[11] = molecular target: Peroxisome proliferator-activated receptor gamma/Nuclear receptor coactivator 2 (Homo sapiens, UniProt P37231); assay type: functional;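 also: agonist potency for raising coactivator recruitment to the receptor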
[12] = molecular target: Peroxisome proliferator-activated receptor gamma/Nuclear receptor coactivator 1 (Homo sapiens, UniProt P37231); assay type: functional;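 also: agonist potency as compounds enhance coactivator SRC-1 recruitment to PPARgamma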
[13] = molecular target: Peroxisome proliferator-activated receptor gamma/Nuclear receptor coactivator 3 (Homo sapiens, UniProt P37231); assay type: functional;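 also: agonist potency for raising coactivator recruitment to the receptor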
[14] = A Cell Based Secondary Assay To Explore Cytotoxicity of Compounds that Sensitize Mycobacterium Tuberculosis to Beta-Lactam Antibiotics.; assay type: functional
[15] = microbe, parasite or virus in culture; assay type: functional; settings: Mycobacterium tuberculosis
[16] = molecular target: T7, Short transient receptor potential channel 4 (Mus musculus, UniProt Q9QUQ5); assay: block of DAMGO-driven TRPC4 calcium entry – cell-based, HEK293 TRPC4/mu-opioid, Fluo-4 calcium, dose response (AID 434942); assay type: functional;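 also: potency of inhibitors blocking the TRPC4 calcium response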
T7 sequence (Q9QUQ5 whole entry): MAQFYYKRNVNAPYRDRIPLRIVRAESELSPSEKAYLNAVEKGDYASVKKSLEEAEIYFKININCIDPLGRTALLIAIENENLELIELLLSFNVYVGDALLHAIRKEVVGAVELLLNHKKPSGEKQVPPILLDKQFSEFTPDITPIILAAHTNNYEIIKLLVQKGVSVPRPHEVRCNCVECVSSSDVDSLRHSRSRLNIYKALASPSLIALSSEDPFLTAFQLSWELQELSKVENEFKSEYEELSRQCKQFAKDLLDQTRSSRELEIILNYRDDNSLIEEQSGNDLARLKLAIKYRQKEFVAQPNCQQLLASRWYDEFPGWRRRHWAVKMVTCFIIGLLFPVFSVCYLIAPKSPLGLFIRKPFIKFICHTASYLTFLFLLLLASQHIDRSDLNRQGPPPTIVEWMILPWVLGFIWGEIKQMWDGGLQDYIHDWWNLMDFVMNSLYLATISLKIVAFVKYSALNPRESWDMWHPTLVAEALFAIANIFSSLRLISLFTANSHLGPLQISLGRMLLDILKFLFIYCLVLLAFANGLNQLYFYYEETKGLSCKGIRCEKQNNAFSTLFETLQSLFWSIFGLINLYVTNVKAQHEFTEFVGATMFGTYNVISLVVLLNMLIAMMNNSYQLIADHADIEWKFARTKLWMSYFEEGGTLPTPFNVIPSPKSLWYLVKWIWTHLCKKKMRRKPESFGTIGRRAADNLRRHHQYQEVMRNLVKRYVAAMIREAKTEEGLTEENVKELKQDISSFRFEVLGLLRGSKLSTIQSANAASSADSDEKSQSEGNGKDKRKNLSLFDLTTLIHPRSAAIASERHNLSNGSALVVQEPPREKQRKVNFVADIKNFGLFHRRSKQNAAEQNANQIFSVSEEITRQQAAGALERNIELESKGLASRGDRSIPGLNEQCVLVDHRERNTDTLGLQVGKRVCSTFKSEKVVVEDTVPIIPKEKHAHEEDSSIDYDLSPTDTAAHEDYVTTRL

Peroxisome proliferator-activated receptor gamma/Nuclear receptor coactivator 3, sequence (P37231 whole entry): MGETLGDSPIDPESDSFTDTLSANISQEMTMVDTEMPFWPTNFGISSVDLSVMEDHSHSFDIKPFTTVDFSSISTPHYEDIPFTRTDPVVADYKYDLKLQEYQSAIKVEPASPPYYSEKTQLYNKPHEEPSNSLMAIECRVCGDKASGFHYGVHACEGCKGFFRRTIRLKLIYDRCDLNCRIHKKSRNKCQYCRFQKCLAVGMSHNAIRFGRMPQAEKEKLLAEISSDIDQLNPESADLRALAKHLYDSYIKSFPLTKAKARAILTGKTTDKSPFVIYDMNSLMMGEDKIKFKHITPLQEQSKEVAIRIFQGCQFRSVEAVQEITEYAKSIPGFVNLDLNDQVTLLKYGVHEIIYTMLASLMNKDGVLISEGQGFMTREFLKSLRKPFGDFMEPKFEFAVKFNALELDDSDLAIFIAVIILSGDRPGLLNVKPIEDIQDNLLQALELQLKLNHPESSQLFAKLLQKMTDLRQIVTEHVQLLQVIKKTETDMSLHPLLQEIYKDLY
Peroxisome proliferator-activated receptor gamma/Nuclear receptor coactivator 3, sequence (Q9Y6Q9 whole entry, further chain): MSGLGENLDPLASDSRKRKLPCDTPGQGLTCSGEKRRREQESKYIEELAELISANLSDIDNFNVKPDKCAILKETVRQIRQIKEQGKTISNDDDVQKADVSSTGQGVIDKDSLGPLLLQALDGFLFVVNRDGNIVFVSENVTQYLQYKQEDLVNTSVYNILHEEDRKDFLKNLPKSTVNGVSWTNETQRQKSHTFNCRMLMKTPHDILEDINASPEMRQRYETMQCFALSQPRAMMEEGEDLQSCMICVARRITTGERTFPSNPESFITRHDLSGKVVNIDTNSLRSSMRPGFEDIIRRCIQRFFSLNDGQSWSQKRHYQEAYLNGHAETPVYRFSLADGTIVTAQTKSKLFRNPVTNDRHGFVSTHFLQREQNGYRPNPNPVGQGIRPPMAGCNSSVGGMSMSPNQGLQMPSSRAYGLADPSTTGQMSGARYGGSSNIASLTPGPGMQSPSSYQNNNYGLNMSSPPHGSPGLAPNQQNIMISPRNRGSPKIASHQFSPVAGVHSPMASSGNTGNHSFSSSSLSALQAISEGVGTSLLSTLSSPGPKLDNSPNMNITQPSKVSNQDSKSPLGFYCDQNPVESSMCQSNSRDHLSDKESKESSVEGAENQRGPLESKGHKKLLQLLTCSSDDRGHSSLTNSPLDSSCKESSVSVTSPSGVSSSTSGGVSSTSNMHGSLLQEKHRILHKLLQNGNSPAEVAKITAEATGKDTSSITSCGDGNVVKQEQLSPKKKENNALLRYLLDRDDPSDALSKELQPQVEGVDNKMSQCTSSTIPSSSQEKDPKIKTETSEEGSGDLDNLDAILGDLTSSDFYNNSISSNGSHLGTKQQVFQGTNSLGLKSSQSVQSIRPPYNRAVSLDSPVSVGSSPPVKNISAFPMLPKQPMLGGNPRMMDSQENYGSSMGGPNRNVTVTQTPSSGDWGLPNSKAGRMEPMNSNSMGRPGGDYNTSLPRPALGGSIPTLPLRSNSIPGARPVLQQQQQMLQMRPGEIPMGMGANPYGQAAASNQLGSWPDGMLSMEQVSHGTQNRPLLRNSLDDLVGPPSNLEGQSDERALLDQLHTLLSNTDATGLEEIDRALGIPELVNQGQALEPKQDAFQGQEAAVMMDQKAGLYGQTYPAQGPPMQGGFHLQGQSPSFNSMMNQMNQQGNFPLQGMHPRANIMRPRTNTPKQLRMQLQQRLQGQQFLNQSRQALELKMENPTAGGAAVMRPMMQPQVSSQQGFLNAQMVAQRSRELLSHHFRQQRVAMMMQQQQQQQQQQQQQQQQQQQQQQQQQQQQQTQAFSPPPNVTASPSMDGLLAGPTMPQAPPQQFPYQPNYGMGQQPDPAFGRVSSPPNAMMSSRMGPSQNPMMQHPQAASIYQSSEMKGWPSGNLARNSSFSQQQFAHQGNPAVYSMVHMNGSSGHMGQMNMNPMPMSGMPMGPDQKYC
Peroxisome proliferator-activated receptor gamma/Nuclear receptor coactivator 1, sequence (P37231 whole entry): as the sequence (P37231 whole entry) above
Peroxisome proliferator-activated receptor gamma/Nuclear receptor coactivator 1, sequence (Q15788 whole entry, further chain): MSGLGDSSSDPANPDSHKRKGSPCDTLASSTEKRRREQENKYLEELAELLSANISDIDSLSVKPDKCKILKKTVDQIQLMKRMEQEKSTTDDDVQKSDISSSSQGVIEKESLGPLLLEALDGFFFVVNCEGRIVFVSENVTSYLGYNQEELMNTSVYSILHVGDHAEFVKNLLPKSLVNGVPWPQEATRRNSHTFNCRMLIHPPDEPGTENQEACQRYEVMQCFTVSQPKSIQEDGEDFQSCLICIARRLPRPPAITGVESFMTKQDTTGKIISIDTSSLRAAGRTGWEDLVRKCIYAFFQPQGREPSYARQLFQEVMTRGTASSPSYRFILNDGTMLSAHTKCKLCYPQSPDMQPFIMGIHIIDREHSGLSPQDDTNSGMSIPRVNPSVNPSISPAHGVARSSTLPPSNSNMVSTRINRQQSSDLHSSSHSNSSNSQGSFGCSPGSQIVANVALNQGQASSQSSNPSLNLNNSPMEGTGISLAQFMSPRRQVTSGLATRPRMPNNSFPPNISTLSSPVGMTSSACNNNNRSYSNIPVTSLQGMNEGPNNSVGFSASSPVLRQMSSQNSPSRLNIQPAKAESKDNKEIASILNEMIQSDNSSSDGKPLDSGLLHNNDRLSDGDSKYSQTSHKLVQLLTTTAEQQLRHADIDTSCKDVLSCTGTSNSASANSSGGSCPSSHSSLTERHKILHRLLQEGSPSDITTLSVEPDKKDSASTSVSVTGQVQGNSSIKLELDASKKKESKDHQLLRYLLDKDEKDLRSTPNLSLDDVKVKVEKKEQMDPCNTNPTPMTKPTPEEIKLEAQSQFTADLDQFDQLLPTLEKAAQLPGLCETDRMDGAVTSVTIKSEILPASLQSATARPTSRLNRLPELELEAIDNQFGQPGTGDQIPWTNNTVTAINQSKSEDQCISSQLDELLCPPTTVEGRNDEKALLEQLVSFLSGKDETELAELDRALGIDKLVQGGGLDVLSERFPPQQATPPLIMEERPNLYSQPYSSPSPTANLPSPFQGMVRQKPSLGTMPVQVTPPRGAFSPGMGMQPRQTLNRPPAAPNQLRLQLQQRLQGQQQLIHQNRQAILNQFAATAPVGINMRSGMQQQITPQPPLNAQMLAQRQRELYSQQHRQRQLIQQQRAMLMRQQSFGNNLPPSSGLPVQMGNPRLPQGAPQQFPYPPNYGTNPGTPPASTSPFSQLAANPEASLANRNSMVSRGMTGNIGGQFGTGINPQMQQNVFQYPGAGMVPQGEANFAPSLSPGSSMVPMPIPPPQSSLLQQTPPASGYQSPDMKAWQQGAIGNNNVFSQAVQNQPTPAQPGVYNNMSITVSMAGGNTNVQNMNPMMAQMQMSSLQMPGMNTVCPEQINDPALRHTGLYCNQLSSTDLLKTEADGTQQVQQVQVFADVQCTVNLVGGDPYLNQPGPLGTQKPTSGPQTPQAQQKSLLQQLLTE
T6 sequence (P11940 whole entry, the tested form may be a part): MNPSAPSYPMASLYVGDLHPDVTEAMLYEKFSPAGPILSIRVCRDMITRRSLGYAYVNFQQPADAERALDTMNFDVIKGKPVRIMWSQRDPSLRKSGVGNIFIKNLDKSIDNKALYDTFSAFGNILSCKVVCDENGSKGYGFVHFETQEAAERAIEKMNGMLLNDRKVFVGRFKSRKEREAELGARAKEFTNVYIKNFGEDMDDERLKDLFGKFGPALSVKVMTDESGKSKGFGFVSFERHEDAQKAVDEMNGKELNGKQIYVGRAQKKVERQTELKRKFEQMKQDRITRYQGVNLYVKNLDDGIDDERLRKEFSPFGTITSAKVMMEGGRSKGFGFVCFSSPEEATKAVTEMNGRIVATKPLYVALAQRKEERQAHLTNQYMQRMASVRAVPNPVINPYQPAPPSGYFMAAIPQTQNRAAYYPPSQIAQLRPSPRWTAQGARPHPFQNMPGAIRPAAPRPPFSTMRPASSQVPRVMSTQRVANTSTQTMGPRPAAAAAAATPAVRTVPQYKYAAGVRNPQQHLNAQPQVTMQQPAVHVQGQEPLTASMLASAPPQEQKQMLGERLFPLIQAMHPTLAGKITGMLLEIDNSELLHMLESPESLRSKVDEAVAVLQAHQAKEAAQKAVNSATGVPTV

## O=S(=O)(C=C(c1ccccc1)c1ccccc1)c1ccccc1
Mucolipin-3
  EC50: 2.82 µM (active)
Ion channel NompC
  EC50: > 29.9 µM (not active)
Cytochrome P450 1A2
  AC50: 28.2 µM (inconclusive)

## COc1ccc(-c2cc(-c3ccc(OC)cc3)[nH]n2)cc1
[1]
  IC50: > 50 µM (active)

## COc1ccccc1-n1nnnc1S(=O)(=O)Cc1ccc(Cl)cc1
[2]
  EC50: 6.84 µM (active)
[3]
  EC50: 9.56 µM (active)
[4]
  EC50: 17.3 µM (active)
[5]
  AC50: 5.1 µM (active)
Protein RecA
  EC50: 1.94 µM (active)

## CCOC(=O)CSc1nc2c(sc(=S)n2-c2ccccc2OC)c(=O)n1Cc1ccco1
Mucolipin-3
  EC50: 0.37 µM (active)
Ion channel NompC
  EC50: > 29.9 µM (not active)
[6]
  IC50: > 66 µM (inactive)
[7]
  IC50: > 66 µM (inactive)

## O=C(NC1=NCCS1)c1cc(-c2ccc(-c3ccccc3)cc2)nc2ccccc12
[8]
  CC50: 21.9 µM (active)
cells
  IC50: 21.7 µM (active)

## Cc1ccc(C(C)C)c(OCC(=O)Nc2ccccc2N2CCN(C)CC2)c1
[9]
  IC50: 2.58 µM (active)
[10]
  IC50: 6.82 µM (active)
[2]
  EC50: > 20 µM (not active)
[3]
  EC50: > 20 µM (not active)

## Cc1nc(SCC(=O)Nc2ccc(F)cc2)c(C#N)c(C)c1CC(=O)c1ccc(Br)cc1
[11]
  EC50: 9.89 µM (active)
[12]
  EC50: 13.8 µM (not active)
[13]
  EC50: 24.8 µM (not active)
[14]
  CC50: 9.4 µM (active)

## Cc1ccc(N2C(=O)C3CCC(c4ccccc4)CC3C2=O)cc1 (configuration not stated)
[11]
  EC50: > 79.4 µM (not active)
[12]
  EC50: > 79.4 µM (not active)
[13]
  EC50: > 79.4 µM (not active)

## Cc1sc(-n2c(C)cc(/C=N/n3cnnc3)c2C)c(C#N)c1C
[11]
  EC50: > 79.4 µM (not active)
[12]
  EC50: > 79.4 µM (not active)
[13]
  EC50: > 79.4 µM (not active)

## N#Cc1cccc2c1-c1ccccc1/C2=N/NC(N)=O
[1]
  IC50: > 100 µM (active)
[15]
  CC50: > 40 µM (active)
[16]
  EC50: 0.0533 µM (active)
